Patent US20050112573A1, “Method of detecting toxic substance” (priority 2001, published 2005)

System: yeast genes (level of expressed mRNA)
Assay: DNA chip analysis of expressed mRNA of yeast genes after 2 h culture with a toxic chemical substance
Format: cell-based, Saccharomyces cerevisiae S288C
Details: for The level of expressed mRNA in the presence of chemical substance/ (ratio to absence of chemical substance): stress protein genes, DNA chip; for The level of expressed mRNA in the presence of chemical substance/ in its absence, gene YPR184W: yeast gene YPR184W
Description: Yeast (Saccharomyces cerevtisiae S288C (α SUC2mal mel gap2 CUP1)) were cultured at 25° C. on YPD medium (yeast extract 1%, polypepton 2%, glucose 2%). One of toxic chemical substances was added to the cell at logarithmic growth phase, and the cell was further cultured for two hours. Cell was cultured without any chemical substance in the same condition, and was used as control. Concentrations of the chemical substances were defined to inhibit the growth of the yeast but not lead to death.
After the completion of cultivation, the culture was centrifuged to collect the cells. To the cells, sodium acetate buffer (50 mM sodium acetate, 10 mM EDTA, 1% SDS) was added, and the mixture was shaken at 65° C. for five minutes, followed by returning to room temperature, and obtaining the supernatant, which procedure was repeated two times. To the supernatant, ½ amount of a solution of phenol/chloroform was added, and the mixture was centrifuged to give a supernatant, which was added with an equal amount of chloroform, and the mixture was centrifuged to give a supernatant. To the supernatant, an equal amount of isopropanol containing 0.3 M sodium acetate was added, and the mixture was allowed to stand at room temperature for 30 minutes, after which the mixture was centrifuged to give a sediment of the whole RNAs. Seventy % ethanol was added to the sediment, and the mixture was again centrifuged to give a sediment, which was then dried and dissolved in water. mRNA was isolated from the whole RNAs as followings. In view of the fact that a poly A chain is attached to the 3′ terminus of mRNA, a polynucleotide having a poly T structure which was immobilized on the surface of latex beads was used to trap the mRNA, and then the mRNA was washed and eluted with spine column (Oligotex-dT30<Super>mRNA Purification Kit, Takara). Reverse transcription of the mRNA was conducted with a reverse transcriptase (Super Script II Reverse Transcriptase; catalogue No. 18064-014, GibcoBRL) using fluorescence-labeled nucleotides to give cDNAs that were introduced with Cy3-dUTP or Cy5-dUTP during the reverse transcription.
The labeled cDNAs were dissolved in TE buffer (10 mM Tris-HCl/1 mM EDTA, pH8.0), and the solution was dropped on the DNA chip containing the whole genes of yeast (DNA Chip Research Inc. Japan) so that the cDNAs were hybridized on the DNA chip at 65° C. for over 12 hours. The fluoresces intensity of the DNA chip was read with a scanner, and the ratio relative to the fluorescence intensity resulting from the absence of chemical substance was estimated as the following, which is shown in Tables 1 to 9: [formula]
In the Tables, “Intensity” indicated in the rightmost column is a value of the level of expressed mRNA of each gene in control cells as divided by the average level of the expressions of the whole genes.

S=C([S-])NCCNC(=S)[S-].[Zn+2] [(11), zinc N,N′-ethylenebis(dithiocarbamate)]
The level of expressed mRNA in the presence of chemical substance/ (in its absence), gene YMR293C (yeast gene YMR293C, ratio of DNA chip fluorescence intensity to that without chemical substance): 0.4 | The level of expressed mRNA in the presence of chemical substance/The level of expressed mRNA in the absence of chemical substance (yeast gene YMR314W): 1.8 | The level of expressed mRNA in the presence of chemical substance/The level of expressed mRNA in the absence of chemical substance (yeast gene YNL006W): 1.1 | The level of expressed mRNA in the presence of chemical substance/The level of expressed mRNA in the absence of chemical substance (yeast gene YNL007C): 1.3 | The level of expressed mRNA in the presence of chemical substance/ (in its absence), gene YNL025C (yeast gene YNL025C, ratio of DNA chip fluorescence intensity to that without chemical substance): 1.1 | The level of expressed mRNA in the presence of chemical substance/ (ratio to absence of chemical substance) (yeast gene YNL064C): 0.9 | The level of expressed mRNA in the presence of chemical substance/ (ratio to absence), gene YNL073W (yeast gene YNL073W, mitochondria-located protein genes, 2 h culture with chemical): 1.1 | The level of expressed mRNA in the presence of chemical substance/The level of expressed mRNA in the absence of chemical substance (yeast gene YNL093W): 1.6 | The level of expressed mRNA in the presence of chemical substance/ (in its absence), gene YNL192W (yeast gene YNL192W, ratio of DNA chip fluorescence intensity to that without chemical substance): 1.1 | The level of expressed mRNA in the presence of chemical substance/The level of expressed mRNA in the absence of chemical substance (yeast gene YNL333W): 2.0 | The level of expressed mRNA in the presence of chemical substance/The level of expressed mRNA in the absence of chemical substance (yeast gene YNR010W): 1.4 | The level of expressed mRNA in the presence of chemical substance/The level of expressed mRNA in the absence of chemical substance (yeast gene YNR069C): 2.5 | The level of expressed mRNA in the presence of chemical substance/ (in its absence), gene YNR072W (yeast gene YNR072W, ratio of DNA chip fluorescence intensity to that without chemical substance): 1.4 | The level of expressed mRNA in the presence of chemical substance/ (ratio to absence of chemical substance) (yeast gene YNR076W): 1.4 | The level of expressed mRNA in the presence of chemical substance/The level of expressed mRNA in the absence of chemical substance (yeast gene YOL013C): 1.4 | The level of expressed mRNA in the presence of chemical substance/ (ratio to absence), gene YOL096C (yeast gene YOL096C, mitochondria-located protein genes, 2 h culture with chemical): 1.2 | The level of expressed mRNA in the presence of chemical substance/ (in its absence), gene YOL096C (yeast gene YOL096C, ratio of DNA chip fluorescence intensity to that without chemical substance): 1.2 | The level of expressed mRNA in the presence of chemical substance/ (in its absence), gene YOL108C (yeast gene YOL108C, ratio of DNA chip fluorescence intensity to that without chemical substance): 1.1 | The level of expressed mRNA in the presence of chemical substance/ (in its absence), gene YOL116W (yeast gene YOL116W, ratio of DNA chip fluorescence intensity to that without chemical substance): 1.0 | The level of expressed mRNA in the presence of chemical substance/ (ratio to absence of chemical substance) (yeast gene YOL161C): 1.5 | The level of expressed mRNA in the presence of chemical substance/The level of expressed mRNA in the absence of chemical substance (yeast gene YOL164W): 1.0 | The level of expressed mRNA in the presence of chemical substance/ (ratio to absence of chemical substance) (yeast gene YOR008C): 1.0 | The level of expressed mRNA in the presence of chemical substance/ (ratio to absence of chemical substance) (yeast gene YOR009W): 1.4 | The level of expressed mRNA in the presence of chemical substance/ (ratio to absence of chemical substance) (yeast gene YOR010C): 1.2 | The level of expressed mRNA in the presence of chemical substance/The level of expressed mRNA in the absence of chemical substance (yeast gene YOR036W): 1.3 | The level of expressed mRNA in the presence of chemical substance/ (in its absence), gene YOR103C (yeast gene YOR103C, ratio of DNA chip fluorescence intensity to that without chemical substance): 1.0 | The level of expressed mRNA in the presence of chemical substance/The level of expressed mRNA in the absence of chemical substance (yeast gene YOR117W): 1.2 | The level of expressed mRNA in the presence of chemical substance/The level of expressed mRNA in the absence of chemical substance (yeast gene YOR124C): 1.2 | The level of expressed mRNA in the presence of chemical substance/The level of expressed mRNA in the absence of chemical substance (yeast gene YOR132W): 1.3 | The level of expressed mRNA in the presence of chemical substance/The level of expressed mRNA in the absence of chemical substance (yeast gene YOR157C): 1.6 | The level of expressed mRNA in the presence of chemical substance/ (in its absence), gene YOR180C (yeast gene YOR180C, ratio of DNA chip fluorescence intensity to that without chemical substance): 0.6 | The level of expressed mRNA in the presence of chemical substance/The level of expressed mRNA in the absence of chemical substance (yeast gene YOR181W): 1.0 | The level of expressed mRNA in the presence of chemical substance/The level of expressed mRNA in the absence of chemical substance (yeast gene YOR185C): 1.2 | The level of expressed mRNA in the presence of chemical substance/The level of expressed mRNA in the absence of chemical substance (yeast gene YOR198C): 1.4 | The level of expressed mRNA in the presence of chemical substance/ (in its absence), gene YOR251C (yeast gene YOR251C, ratio of DNA chip fluorescence intensity to that without chemical substance): 1.0 | The level of expressed mRNA in the presence of chemical substance/The level of expressed mRNA in the absence of chemical substance (yeast gene YOR259C): 1.0 | The level of expressed mRNA in the presence of chemical substance/The level of expressed mRNA in the absence of chemical substance (yeast gene YOR261C): 2.1 | The level of expressed mRNA in the presence of chemical substance/The level of expressed mRNA in the absence of chemical substance (yeast gene YOR288C): 1.4 | The level of expressed mRNA in the presence of chemical substance/ (ratio to absence), gene YOR316C (yeast gene YOR316C, mitochondria-located protein genes, 2 h culture with chemical): 2.4 | The level of expressed mRNA in the presence of chemical substance/ (in its absence), gene YOR348C (yeast gene YOR348C, ratio of DNA chip fluorescence intensity to that without chemical substance): 1.1 | The level of expressed mRNA in the presence of chemical substance/The level of expressed mRNA in the absence of chemical substance (yeast gene YOR355W): 1.2 | The level of expressed mRNA in the presence of chemical substance/ (in its absence), gene YOR363C (yeast gene YOR363C, ratio of DNA chip fluorescence intensity to that without chemical substance): 1.2 | The level of expressed mRNA in the presence of chemical substance/The level of expressed mRNA in the absence of chemical substance (yeast gene YOR383C): 1.4 | The level of expressed mRNA in the presence of chemical substance/ (ratio to absence), gene YPL040C (yeast gene YPL040C, mitochondria-located protein genes, 2 h culture with chemical): 0.9 | The level of expressed mRNA in the presence of chemical substance/ (ratio to absence of chemical substance) (yeast gene YPL059W): 1.6 | The level of expressed mRNA in the presence of chemical substance/The level of expressed mRNA in the absence of chemical substance (yeast gene YPL089C): 0.9 | The level of expressed mRNA in the presence of chemical substance/ (ratio to absence), gene YPL134C (yeast gene YPL134C, mitochondria-located protein genes, 2 h culture with chemical): 1.7 | The level of expressed mRNA in the presence of chemical substance/ (ratio to absence of chemical substance) (yeast gene YPL140C): 0.8 | The level of expressed mRNA in the presence of chemical substance/ (in its absence), gene YPL148C (yeast gene YPL148C, ratio of DNA chip fluorescence intensity to that without chemical substance): 3.5 | The level of expressed mRNA in the presence of chemical substance/The level of expressed mRNA in the absence of chemical substance (yeast gene YPL149W): 1.2 | The level of expressed mRNA in the presence of chemical substance/The level of expressed mRNA in the absence of chemical substance (yeast gene YPL154C): 1.8 | The level of expressed mRNA in the presence of chemical substance/ (ratio to absence of chemical substance) (yeast gene YPL194W): 0.9 | The level of expressed mRNA in the presence of chemical substance/ (ratio to absence of chemical substance) (yeast gene YPR005C): 0.4 | The level of expressed mRNA in the presence of chemical substance/The level of expressed mRNA in the absence of chemical substance (yeast gene YPR103W): 0.9 | The level of expressed mRNA in the presence of chemical substance/The level of expressed mRNA in the absence of chemical substance (yeast gene YPR108W): 1.8 | The level of expressed mRNA in the presence of chemical substance/ (in its absence), gene YPR165W (yeast gene YPR165W, ratio of DNA chip fluorescence intensity to that without chemical substance): 1.0 | The level of expressed mRNA in the presence of chemical substance/ in its absence, gene YPR184W (energy system protein genes, 2 h culture with the chemical, ratio to control without chemical): 3.6 | The level of expressed mRNA in the presence of chemical substance/ in its absence, gene YPR184W (ratio of DNA chip fluorescence intensity to that without chemical substance): 3.6
